For assay [1], the system named is MRSA strain MB #5180. Put plainly: antibiotic disc-diffusion assay of MRSA activity, relative to imipenem. The assay is classed as cell-based, methicillin resistant Staphylococcus aureus. As to conditions: multiples of the relative potency of imipenem. The procedure:
In vitro antibacterial activity determined in accordance with the protocol set forth below is predictive of in vivo activity, when the compounds are administered to a mammal infected with a susceptible bacterial organism.
(§1) Minimum inhibitory concentrations for different compounds may be calculated using the procedures set forth in Lorian, V. (ed.) Antibiotics in Laboratory Medicine (3rd ed.) pages 30-35 if desired. However, by comparing disc sensitivities to a known compound, e.g., imipenem, this calculation is not required to recognize MRSA/MRCNS activity.
Assay Used to Test the Activities of Carbapenems Against Methicillin-Resistant Staphylococci: The assay is an antibiotic disc-diffusion assay modeled after the method described by Bauer and Kirby, et al.1, with the following modifications and clarifications:
Agar: This assay employs an agar depth of 2 mm instead of 4 mm.
Zone Readings: The inner, completely clear zone is measured.
Culture Storage: Frozen vials of strains are stored at -80° C. Working slants are prepared from frozen vials and are used for 1 month to 6 weeks. For methicillin-resistant strains the slant medium is Muleller Hinton Agar; for control strains the slant medium is Brain Heart Infusion Agar. After inoculation from frozen vials, methicillin-resistant slant cultures are incubated at 28° C. until good growth is achieved (approximately 20 hours); slants of control strains are incubated at 37° C. for 16-18 hours.
Preparation of Methicillin-Resistant Inocula for Assay: For methicillin-resistant strains, inoculate 0.5 ml of BHIB heavily (to achieve approximately 1×10^8-109 cfu/ml) from the slant culture by using a sterile cotton tipped applicator. […]
Methicillin-resistant Staphylococci: With a cotton tipped applicator, swab enough growth off the grown plates into 1 ml BHIB to achieve a visual concentration of approximately 1×10^9 cfu/ml. […] Add measured quantities of PBS to dilutions to achieve % T @ 1% above or below the % T measurement for the control cultures. […]
(In general: A growth-free zone around the sample is the usual read-out of agar diffusion tests.)

The test system of assay [2] is MRSA strain MB #5180. In words: minimum inhibitory concentration. Type of assay: cell-based, methicillin resistant Staphylococcus aureus. Particulars: Staphylococcus aureus, imipenem (standard). On the procedure: as §1
All compounds below were tested against MRSA strain MB #5180. […]

Values after ≈ are worked out from the molar mass of the structure shown.

Take `C[C@@H](O)[C@H]1C(=O)N2C(C(=O)O)=C3c4cccc(-c5ccccc5)c4CC[C@@H]3[C@H]12`: in the assay on MRSA strain MB #5180 [1], the “MRSA Activity” value came to 1.9.

With `C[C@@H](O)[C@H]1C(=O)N2C(C(=O)O)=C(SCCN=CN)C[C@H]12` [imipenem], in the assay with MRSA strain MB #5180 [2], the minimum inhibitory concentration (MIC) stood at 46 µg/mL (≈ 154 µM).

For the compound `C[C@@H](O)[C@H]1C(=O)N2C(C(=O)O)=C3c4cc(-c5ccccc5)ccc4CC[C@@H]3[C@H]12`, the “MRSA Activity” value with MRSA strain MB #5180 [1] is 18.0.

Turning to `C[C@@H](O)[C@H]1C(=O)N2C(C(=O)O)=C3c4ccccc4CC[C@@H]3[C@H]12`, the “MRSA Activity” value in the assay with MRSA strain MB #5180 [1] is 1.3.

Usually MIC stands for the smallest concentration in the dilution series that meets the test's criterion for growth inhibition. Higher therefore signals weaker potency.

Source of the values: patent US5384317A, “Bridged biphenyl carbapenem compounds, compositions containing such compounds and methods of use” (Merck & Co., Inc., priority 1993, dated 1995).
